This passage reports Activity and zone of inhibition results from ChEMBL document CHEMBL3045682, “Synthesis of some new indolo[2,3-c]isoquinolinyl pyrazoles, -1,3,4-oxadiazoles and their biological activities” (2013).

Each structure is given as a SMILES string.

Holding throughout (assay type): functional
Assay [1] has as its system Radical scavenging activity. The assay can be described thus: Antioxidant activity assessed as DPPH free radical scavenging activity at 25 ug/ml by spectrophotometric analysis relative to control. For orientation: The DPPH test is a chemical assay of radical scavenging.
In assay [2] the test system is Aspergillus fumigatus. The assay is described as follows: Antifungal activity against Aspergillus fumigatus assessed as growth inhibition at 1 mg/ml by cup-plate method. Particulars: read-out: IZ.
Assay [3] relates to Aspergillus flavus. The assay can be described thus: Antifungal activity against Aspergillus flavus assessed as growth inhibition at 1 mg/ml by cup-plate method. The settings on record: read-out: IZ.
Assay [4] concerns Aspergillus niger. The assay can be described thus: Antifungal activity against Aspergillus niger assessed as growth inhibition at 1 mg/ml by cup-plate method. The settings on record: read-out: IZ.
For assay [5], the system named is Pseudomonas putida. The assay is described as follows: Antibacterial activity against Pseudomonas putida assessed as growth inhibition at 1 mg/ml by cup-plate method. The settings on record: read-out: IZ.
Assay [6] deals with Bacillus subtilis. The assay can be described thus: Antibacterial activity against Bacillus subtilis assessed as growth inhibition at 1 mg/ml by cup-plate method. Particulars: read-out: IZ.
Assay [7] concerns Escherichia coli. The assay can be described thus: Antibacterial activity against Escherichia coli assessed as growth inhibition at 1 mg/ml by cup-plate method. Particulars: read-out: IZ.
Assay [8] relates to Radical scavenging activity. The assay is described as follows: Antioxidant activity assessed as DPPH free radical scavenging activity at 50 ug/ml by spectrophotometric analysis relative to control.
Assay [9] deals with Radical scavenging activity. The assay can be described thus: Antioxidant activity assessed as DPPH free radical scavenging activity at 100 ug/ml by spectrophotometric analysis relative to control.
In assay [10] the test system is Radical scavenging activity. The assay is described as follows: Antioxidant activity assessed as DPPH free radical scavenging activity at 75 ug/ml by spectrophotometric analysis relative to control.

For the molecule `COc1ccc2[nH]c3c(c2c1)c1ccccc1c(=O)n3C(=O)n1nc(-c2ccccc2)cc1-c1ccccc1`, the Activity in assay [1] turned out to be 60%. For the same molecule, the zone of inhibition at 1000 µg/mL in assay [2] was 15 mm; in assay [3] it was 17 mm; in assay [4] it was 9 mm; in [5], 17 mm; in assay [6] it was 11 mm; in assay [7], 11 mm.
As to `CN[C@@H]1[C@H](O[C@H]2[C@H](O[C@H]3[C@H](O)[C@@H](O)[C@H](N=C(N)N)[C@@H](O)[C@@H]3N=C(N)N)O[C@@H](C)[C@]2(O)C=O)O[C@@H](CO)[C@H](O)[C@H]1O` [STREPTOMYCIN], the zone of inhibition at 1000 µg/mL was 22 mm in [5], 20 mm in [6] and 19 mm in assay [7].
With `COc1ccc2[nH]c3c(c2c1)c1ccccc1c(=O)n3-c1n[nH]c(=S)o1`, the Activity in [8] was 67.8%; in assay [1], 60.8%. The zone of inhibition at 1000 µg/mL in assay [2] is 15 mm; in assay [3], 10 mm; in assay [4] it was 10 mm; in assay [5], 7 mm; in assay [6] it was 10 mm; in assay [7], 13 mm.
For the molecule `Cc1ccc2[nH]c3c(c2c1)c1ccccc1c(=O)n3C(=O)n1nc(C)cc1C`, the Activity in assay [9] stood at 64.7%. Also, the zone of inhibition at 1000 µg/mL in assay [2] turned out to be 11 mm; in assay [3], 16 mm; in [4] it was 8 mm; in assay [5], 10 mm; in assay [6] it was 11 mm; in assay [7], 13 mm.
With `O=C(n1nc(-c2ccccc2)cc1-c1ccccc1)n1c(=O)c2ccccc2c2c3cc(Cl)ccc3[nH]c21`, the zone of inhibition at 1000 µg/mL is 15 mm in [2]; 9 mm in assay [3]; 4 mm in assay [4]; 18 mm in assay [5]; 13 mm in assay [6]; 10 mm in assay [7].
Turning to `Cc1cc(C)n(C(=O)n2c(=O)c3ccccc3c3c4cc(Cl)ccc4[nH]c32)n1`, the zone of inhibition at 1000 µg/mL in assay [2] amounted to 15 mm; in assay [3] it was 11 mm; in assay [4], 16 mm; in [5], 19 mm; in [6] it was 11 mm; in assay [7], 9 mm.
On to `COc1ccc2[nH]c3c(c2c1)c1ccccc1c(=O)n3C(=O)n1nc(C)cc1C`, for which the Activity in [10] was 53.8%. Further, the zone of inhibition at 1000 µg/mL in assay [2] came out at 4 mm; in assay [3], 8 mm; in [4], 10 mm; in assay [5] it was 10 mm; in assay [6] it was 8 mm; in assay [7], 11 mm.
Consider `CC1=NN(C(=O)n2c(=O)c3ccccc3c3c4cc(Cl)ccc4[nH]c32)C(=O)C1`, for which the Activity in assay [1] came out at 67.5%. Further, the zone of inhibition at 1000 µg/mL in assay [2] was 13 mm; in [3], 9 mm; in assay [4], 6 mm; in [5], 15 mm; in assay [6] it was 10 mm; in assay [7], 7 mm.
Regarding `COc1ccc2[nH]c3c(c2c1)c1ccccc1c(=O)n3C(=O)N1N=C(C)CC1=O`, the zone of inhibition at 1000 µg/mL in assay [2] came to 4 mm; in assay [3], 7 mm; in assay [4], 9 mm; in [5], 10 mm; in assay [6], 10 mm; in [7] it was 17 mm.
In the case of `Cc1ccc2[nH]c3c(c2c1)c1ccccc1c(=O)n3C(=O)n1nc(-c2ccccc2)cc1-c1ccccc1`, the Activity in [8] came out at 56.9%; in [1], 56.2%. Further, the zone of inhibition at 1000 µg/mL in [2] was 4 mm; in assay [3] it was 13 mm; in [4], 15 mm; in [5] it was 13 mm; in assay [6], 9 mm; in assay [7], 5 mm.
As for `Cc1ccc2[nH]c3c(c2c1)c1ccccc1c(=O)n3-c1n[nH]c(=S)o1`, the values for the Activity in assay [8] and in [1] were 65.4% and 57.7%, respectively. Moreover, the zone of inhibition at 1000 µg/mL came out at 10 mm in assay [2]; 13 mm in assay [3]; 8 mm in assay [4]; 19 mm in [5]; 11 mm in assay [6]; 11 mm in assay [7].
With `O=c1c2ccccc2c2c3cc(Cl)ccc3[nH]c2n1-c1n[nH]c(=S)o1`, the Activity in assay [9] was 68.9%; in assay [10], 58%; in assay [8], 69.8%; in assay [1], 68.3%. For the same molecule, the zone of inhibition at 1000 µg/mL in [2] came to 17 mm; in assay [3], 16 mm; in assay [4], 17 mm; in [5], 20 mm; in assay [6], 19 mm; in assay [7] it was 18 mm.
Take `CC1=NN(C(=O)n2c(=O)c3ccccc3c3c4cc(C)ccc4[nH]c32)C(=O)C1`: the Activity in [10] was determined as 56.5%; in assay [8], 64.2%; in assay [1], 58%. Moreover, the zone of inhibition at 1000 µg/mL in assay [2] turned out to be 15 mm; in assay [3], 14 mm; in assay [4], 12 mm; in assay [5], 18 mm; in assay [6], 8 mm; in assay [7], 10 mm.
`OC(Cn1cncn1)(Cn1cncn1)c1ccc(F)cc1F` [FLUCONAZOLE]: the zone of inhibition at 1000 µg/mL in assay [2] was 18 mm; in assay [3], 19 mm; in assay [4], 18 mm.
